In patent US10842793B2, “Inhibitors of the unconventional secretion of fibroblast growth factor 2 (FGF2) by tumor cells and uses thereof” (Universität Heidelberg, priority 2016, dated 2020):

What follows are molecules tested against T1, His-FGF2/GST-NΔ173 Tec (Homo sapiens, UniProt P42680) (assay: Alpha protein-protein interaction assay, FGF2 binding to Tec kinase). Details: dose-response, ± SEM, four independent experiments.
T1 construct: made in house; host or cells: Tec: SF9 insect cells (baculovirus); FGF2: E. coli
T1 sequence (P42680 174-631 limits assumed, stated change not applied): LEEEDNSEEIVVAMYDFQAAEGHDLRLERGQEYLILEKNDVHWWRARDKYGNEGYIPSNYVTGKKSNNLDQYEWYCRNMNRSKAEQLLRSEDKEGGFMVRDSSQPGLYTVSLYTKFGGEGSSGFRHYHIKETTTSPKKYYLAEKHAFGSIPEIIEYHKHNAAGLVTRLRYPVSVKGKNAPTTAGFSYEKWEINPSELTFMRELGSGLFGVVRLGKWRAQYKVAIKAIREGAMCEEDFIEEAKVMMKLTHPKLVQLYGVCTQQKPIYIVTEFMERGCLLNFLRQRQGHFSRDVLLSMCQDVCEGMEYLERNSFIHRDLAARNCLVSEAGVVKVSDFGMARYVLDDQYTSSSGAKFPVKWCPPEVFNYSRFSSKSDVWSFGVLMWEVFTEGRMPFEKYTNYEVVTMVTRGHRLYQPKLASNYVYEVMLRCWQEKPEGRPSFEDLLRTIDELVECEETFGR
Description: Alpha® protein-protein interaction assays with His-tagged FGF2 (125 nM) and GST-NΔ173 Tec (31.25 nM) (blue spheres) as well as His-tagged MBP-CARP (20 nM) and GST-titin (20 nM) (red squares) were conducted as described in the legend of FIG. 3 and in Experimental Procedures. Additionally, as a technical control, a single fusion protein containing both a GST- and a His-tag was used (20 nM; black triangles). Dose response curves were recorded with the three active compounds (#6, #14 and #21) as well as the two control compounds (#18 and #19) (FIG. 4). For each compound four independent experiments (each of which was conducted in three technical replicates) were performed. Data points were fitted using the non-linear regression function log (inhibitor) vs. response—variable slope (four parameters). Data were evaluated using GraphPad Prism (v5 for Mac OS X). Standard deviations are shown.
A Protein-Protein Interaction Assay Designed to Screen Small Molecule Libraries for Compounds Inhibiting FGF2 Binding to Tec Kinase (Alphascreen® Assay)
To quantify the interaction of FGF2 with Tec kinase under screening conditions, an assay was established based upon Alpha® technology. Briefly, this methodology is based on a pair of proteins of interest that bind to Alpha® donor and acceptor beads, respectively. Upon excitation of donor beads at 680 nm, singlet oxygen species are produced that can diffuse within a range of 200 nm. […] This in turn causes emission of light with a wave length of 520 nm that is detected as the Alpha® signal.
The optimal concentrations of His-tagged FGF2 and GST-tagged NΔ173 Tec in the Alphascreen were determinate in a cross-titration experiment (not shown) to be 31.25 nM and 62.5 nM, respectively. […] All Alpha® assays were carried out in white low volume 384-well plates (#6008280, ProxiPlate™) and read in an EnVision plate reader (Perkin Elmer). […]
AlphaScreen experiments were performed as described above. […] Following 60 min of incubation, Alpha® signals were recorded using an EnVision™ plate reader (PerkinElmer). […]

IC50 [µM] | Structure (SMILES)
8.9 | COC(=O)c1c(C)[nH]c(C(=O)OCc2cc(=O)n3c(C)cccc3n2)c1C [compound #6]
7 | CC(=O)c1c(C)[nH]c(C(=O)OCc2cc(=O)n3cc(Br)ccc3n2)c1C [compound #14]
11.7 | CC(=O)c1c(C)[nH]c(C(=O)CSc2nc3cc(Cl)cnc3[nH]2)c1C [compound #21]
